Experimental data: patent US6706663B2, “Herbicidal 3-heterocyclic substituted benzisothiazole and benzisoxazole compounds” (Wyeth, priority 2000, dated 2004)

How the values were obtained:
[1] = system: ZEAMX (Corn, Field); test: Preemergence herbicidal evaluation; format: in vivo, Zea mays, L.; conditions: Rate 0.2500 kg/ha; preemergence; rated 4-5 weeks after treatment
From the text: (§1) Results of herbicide evaluation are expressed on a rating scale (0-9). The scale is based upon a visual observation of plant stand, vigor, malformation, size, chlorosis and overall plant appearance as compared with a control.
(§2) The preemergence herbicidal activity of the test compounds of the present invention is exemplified by the following tests in which the seeds of a variety of monocotyledonous and dicotyledonous plants are separately mixed with potting soil and planted on top of approximately one inch of soil in separate pint cups. […] The treated cups are then placed on greenhouse benches, watered and cared for in accordance with conventional greenhouse procedures. From four to five weeks after treatment, the tests are terminated and each cup is examined and rated according to the rating system provided in Example 87. The plant species used and the compounds evaluated are the same as those shown in Example 87.

[2] = system: GALAP (Galium aparine); test: Postemergence herbicidal evaluation; format: in vivo; conditions: rate 0.1250 kg/ha
Experimental: (§3) In the tests, seedling plants are grown in jiffy flats for about two weeks. […] After spraying, the plants are placed on greenhouse benches and are cared for in accordance with conventional greenhouse procedures. From four to five weeks after treatment, the seedling plants are examined and rated according to the rating system set forth below. Where more than one test is involved for a given compound, the data are averaged.
as §1

[3] = system: ZEAMX (Corn, Field); test: Postemergence herbicidal evaluation; format: in vivo, Zea mays, L.; conditions: rate 0.1250 kg/ha
Experimental: as §3, §1

[4] = system: ORYSAT (Rice, Tebonnet); test: Postemergence herbicidal evaluation; format: in vivo, Oryza sativa, (L.) Tebonnet; conditions: rate 0.1250 kg/ha
Experimental: as §3, §1

[5] = system: ECHCG (Echinochloa crus-galli); test: Postemergence herbicidal evaluation; format: in vivo, (L.) Beau; conditions: rate 0.1250 kg/ha
Experimental: as §3, §1

[6] = system: TRZAWR (Wheat, Winter, cv Riband); test: Preemergence herbicidal evaluation; format: in vivo, Triticum aestivum; conditions: Rate 0.2500 kg/ha; preemergence; rated 4-5 weeks after treatment
From the text: as §1, §2

[7] = system: IPOHE (Ipomoea hederacea); test: Preemergence herbicidal evaluation; format: in vivo, (L.) Jacq.; conditions: Rate 0.2500 kg/ha; preemergence; rated 4-5 weeks after treatment
From the text: as §1, §2

[8] = system: SAGPY (Sagittaria pygmaea); test: Flooded paddy, preemergence weed control; format: in vivo, L.; conditions: rate 0.1250 kg/ha, rated 3-4 weeks after treatment, 0-9 rating scale
Experimental: as §1
(§4) Preemergence herbicidal activity under flooded paddy conditions is determined as follows: plant seeds or propagating organs are planted in the top 0.5 cm of silt loam soil in 32 oz. plastic containers with a diameter of 10.5 cm and no drainage holes. Water is added to these containers and maintained at 1.5 to 3 cm above the soil surface for the duration of the experiment. […] The treated containers are placed on greenhouse benches and cared for in accordance with conventional greenhouse procedures.

[9] = system: IPOHE (Ipomoea hederacea); test: Postemergence herbicidal evaluation; format: in vivo, (L.) Jacq.; conditions: rate 0.1250 kg/ha
Experimental: as §3, §1

[10] = system: TRZAWR (Wheat, Winter, cv Riband); test: Postemergence herbicidal evaluation; format: in vivo, Triticum aestivum; conditions: rate 0.1250 kg/ha
Experimental: as §3, §1

[11] = system: CYPIR (Cyperus iria); test: Flooded paddy, preemergence weed control; format: in vivo; conditions: rate 0.1250 kg/ha, rated 3-4 weeks after treatment, 0-9 rating scale
Experimental: as §1, §4

[12] = system: ECHORC (Echinochloa oryzoides); test: Flooded paddy, preemergence weed control; format: in vivo, Echinochloa oryzoides (Ard.) Fritsch.; conditions: rate 0.1250 kg/ha, rated 3-4 weeks after treatment, 0-9 rating scale
Experimental: as §1, §4

[13] = system: ABUTH (Abutilon theophrasti); test: Preemergence herbicidal evaluation; format: in vivo, Medic.; conditions: Rate 0.2500 kg/ha; preemergence; rated 4-5 weeks after treatment
From the text: as §1, §2

[14] = system: MOOVA (Monochoria vaginalis); test: Flooded paddy, preemergence weed control; format: in vivo, Presl.; conditions: rate 0.1250 kg/ha, rated 3-4 weeks after treatment, 0-9 rating scale
Experimental: as §1, §4

[15] = system: CYPSE (Cyperus serotinus); test: Flooded paddy, preemergence weed control; format: in vivo, Rottb.; conditions: rate 0.1250 kg/ha, rated 3-4 weeks after treatment, 0-9 rating scale
Experimental: as §1
Preemergence herbicidal activity under flooded paddy conditions is determined as follows: plant seeds or propagating organs are planted in the top 0.5 cm of silt loam soil in 32 oz. plastic containers with a diameter of 10.5 cm and no drainage holes. Water is added to these containers and maintained at 1.5 to 3 cm above the soil surface for the duration of the experiment. The test compounds are applied as aqueous/acetone mixtures 50/50 v/v pipetted directly into the flood water to give the equivalent of about 0.0080 to 0.1250 kg/ha of active ingredient. The treated containers are placed on greenhouse benches and cared for in accordance with conventional greenhouse procedures. Three to four weeks after treatment, the test is terminated and each container is examined and herbicidal effect rated according to the rating system provided in Example 87.

[16] = system: SETVI (Setaria viridis); test: Postemergence herbicidal evaluation; format: in vivo, (L.) Beau; conditions: rate 0.1250 kg/ha
Experimental: In the tests, seedling plants are grown in jiffy flats for about two weeks. The test compounds are dispersed in 50/50 acetone/water mixtures containing 0.5% TWEEN® 20, a polyoxyethylene sorbitan monolaurate surfactant of Atlas Chemical Industries, in sufficient quantities to provide the equivalent of about 0.0040 kg to 1.000 kg per hectare of active compound when applied to the plants through a spray nozzle operating at 40 psi for a predetermined time. After spraying, the plants are placed on greenhouse benches and are cared for in accordance with conventional greenhouse procedures. From four to five weeks after treatment, the seedling plants are examined and rated according to the rating system set forth below. Where more than one test is involved for a given compound, the data are averaged.
as §1

[17] = system: SETVI (Setaria viridis); test: Preemergence herbicidal evaluation; format: in vivo, (L.) Beau; conditions: Rate 0.2500 kg/ha; preemergence; rated 4-5 weeks after treatment
From the text: as §1, §2

[18] = system: ECHCG (Echinochloa crus-galli); test: Preemergence herbicidal evaluation; format: in vivo, (L.) Beau; conditions: Rate 0.2500 kg/ha; preemergence; rated 4-5 weeks after treatment
From the text: as §1, §2

[19] = system: ABUTH (Abutilon theophrasti); test: Postemergence herbicidal evaluation; format: in vivo, Medic.; conditions: rate 0.1250 kg/ha
Experimental: as §3, §1

[20] = system: ORYSAT (Rice, Tebonnet); test: Preemergence herbicidal evaluation; format: in vivo, Oryza sativa, (L.) Tebonnet; conditions: Rate 0.2500 kg/ha; preemergence; rated 4-5 weeks after treatment
From the text: as §1, §2

[21] = system: CHEAL (Chenopodium album); test: Postemergence herbicidal evaluation; format: in vivo, L.; conditions: rate 0.1250 kg/ha
Experimental: as §3, §1

[22] = system: AMBEL (Ambrosia artemisifolia); test: Postemergence herbicidal evaluation; format: in vivo, L.; conditions: rate 0.1250 kg/ha
Experimental: as §3, §1

[23] = system: CASOB (Cassia obtusifolia); test: Postemergence herbicidal evaluation; format: in vivo, L.; conditions: rate 0.1250 kg/ha
Experimental: as §3, §1

[24] = system: ORYSAT (Rice, Tebonnet); test: Flooded paddy, post-transplant rice tolerance; format: in vivo, Oryza sativa, (L.) Tebonnet; conditions: flooded paddy, post-transplant rice; rate 0.1250 kg/ha; rated 3-4 weeks after treatment; 0-9 rating scale
Experimental: as §1
The tolerance of transplanted rice to post-transplanted herbicide application is determined as follows: two ten-day-old rice seedlings (cv. Tebonnet) are transplanted into silt loam soil in 32 oz. plastic containers with a diameter of 10.5 cm and no drainage holes. After transplanting, the containers are flooded and the water level is maintained at 1.5 to 3 cm above the soil surface. […] The treated containers are placed on greenhouse benches, watered such that the water level is maintained as stated above, and cared for in accordance with conventional greenhouse procedures.

[25] = system: GLXMAW (Soybean, Williams); test: Preemergence herbicidal evaluation; format: in vivo, Glycine max, (L.) Merr. cv Williams; conditions: Rate 0.2500 kg/ha; preemergence; rated 4-5 weeks after treatment
From the text: as §1, §2

[26] = system: CHEAL (Chenopodium album); test: Preemergence herbicidal evaluation; format: in vivo, L.; conditions: Rate 0.2500 kg/ha; preemergence; rated 4-5 weeks after treatment
From the text: as §1, §2

[27] = system: AMBEL (Ambrosia artemisifolia); test: Preemergence herbicidal evaluation; format: in vivo, L.; conditions: Rate 0.2500 kg/ha; preemergence; rated 4-5 weeks after treatment
From the text: as §1, §2

[28] = system: CASOB (Cassia obtusifolia); test: Preemergence herbicidal evaluation; format: in vivo, L.; conditions: Rate 0.2500 kg/ha; preemergence; rated 4-5 weeks after treatment
From the text: as §1, §2

[29] = system: GLXMAW (Soybean, Williams); test: Postemergence herbicidal evaluation; format: in vivo, Glycine max, (L.) Merr. cv Williams; conditions: rate 0.1250 kg/ha
Experimental: as §3, §1

`Cn1cccc1-c1nsc2ccc(-n3c(=O)cc(C(F)(F)F)n(C)c3=O)cc12` [Compound 6, 1-methyl-3-[3-(1-methylpyrrol-2-yl)-1,2-benzisothiazol-5-yl]-6-(trifluoromethyl)uracil] was tested, and the “ZEAMX preemergence herbicidal rating” value [1] was 5.0, the “Postemergence herbicidal rating, GALAP” value [2] was 4.0 and the “Postemergence herbicidal rating, ZEAMX” value [3] was 5.0. For the same compound, the “Postemergence herbicidal rating, ORYSAT” value [4] was 3.0, the “Postemergence herbicidal rating, ECHCG” value [5] was 0.0 and the “TRZAWR preemergence herbicidal rating” value [6] was 2.0. The “IPOHE preemergence herbicidal rating” value [7] was 9.0, the “herbicidal rating, SAGPY” value [8] was 4.0 and the “Postemergence herbicidal rating, IPOHE” value [9] was 9.0. For the same compound, the “Postemergence herbicidal rating, TRZAWR” value [10] was 4.5, the “herbicidal rating, CYPIR” value [11] was 9.0 and the “herbicidal rating, ECHORC” value [12] was 2.0. For the same compound, the “ABUTH preemergence herbicidal rating” value [13] was 9.0, the “herbicidal rating, MOOVA” value [14] was 9.0 and the “herbicidal rating, CYPSE” value [15] was 9.0. For the same compound, the “Postemergence herbicidal rating, SETVI” value [16] was 0.0, the “SETVI preemergence herbicidal rating” value [17] was 8.0 and the “ECHCG preemergence herbicidal rating” value [18] was 9.0. For the same compound, the “Postemergence herbicidal rating, ABUTH” value [19] was 9.0, the “ORYSAT preemergence herbicidal rating” value [20] was 2.0 and the “Postemergence herbicidal rating, CHEAL” value [21] was 4.0. The “Postemergence herbicidal rating, AMBEL” value [22] was 3.0, the “Postemergence herbicidal rating, CASOB” value [23] was 0.0 and the “herbicidal rating, ORYSAT (rice tolerance)” value [24] was 3.0. For the same compound, the “GLXMAW preemergence herbicidal rating” value [25] was 4.0, the “CHEAL preemergence herbicidal rating” value [26] was 9.0 and the “AMBEL preemergence herbicidal rating” value [27] was 9.0. The “CASOB preemergence herbicidal rating” value [28] was 0.0 and the “Postemergence herbicidal rating, GLXMAW” value [29] was 7.5.
